This is an account of results in patent US20250213499A1, “COMPOSITION FOR PREVENTING OR TREATING ISCHEMIC STROKE, CONTAINING SOBREROL AS ACTIVE INGREDIENT” (NEUROLMED CO., LTD, priority 2020, published 2025).

SMILES strings stand for the structures.

This test has as its system focal cerebral ischemia induced by middle cerebral artery occlusion and reperfusion (MCAO/R). In words: Rodent cerebral ischemia model (MCAO/R): volume of cerebral infarction area by TTC staining. In kind it is in vivo, mice (C57/BL6). Particulars: for cerebral infarction volume due to focal cerebral ischemia (FIG. 3): TTC-stained brain slices, ImageJ, *** p<0.001. How it is done: 12- to 13-week-old male mice (C57/BL6) were used in the experiment. The mice were divided into four groups of five each (three in the Sham group): Sham (surgical control group), stroke surgery group (Stroke), stroke+sobrerol-L (administration of 10 mg/kg of SOB-L), and stroke+sobrerol-H (administration of 40 mg/kg of SOB-H). According to the schematic view shown in FIG. 1, middle cerebral artery occlusion and reperfusion operation (MCAO/R) was performed to induce focal cerebral ischemia. After MCAO/R surgery, sobrerol was orally administered at concentrations of 10 mg/kg and 40 mg/kg. In the Sham and Stroke control groups, saline was orally administered. Neurological deficit tests were performed 22-23 hours after MCAO/R (n=5). After re-anesthesia, cardiac reperfusion in mice was carried out with PBS solution, and the brains were immediately removed and stained with 2% TTC (2,3,5-triphenyl-tetrazolium chloride) solution. TTC-stained slices were obtained from the mice in four groups, particularly Sham (surgical control group), stroke surgery group (Stroke), stroke+sobrerol-L (administration of 10 mg/kg of SOB-L), and stroke+sobrerol-H (administration of 40 mg/kg of SOB-H), and the volume of the cerebral infarction area was measured. Quantification was measured using ImageJ.

In the case of `CC1=CCC(C(C)(C)O)CC1O` (centres unmarked) [sobrerol, 5-(2-hydroxypropan-2-yl)-2-methylcyclohex-2-en-1-ol], the “cerebral infarction volume due to focal cerebral ischemia (FIG. 3)” value is, setting by setting: (10 mg/kg oral after MCAO/R (sobrerol-L)) “significantly reduced”; (40 mg/kg oral after MCAO/R (sobrerol-H)) “significantly reduced”. Further, the “damage status of ischemic brain tissue in TTC-stained slices (FIG. 2)” value is “undamaged” (40 mg/kg oral (stroke+sobrerol-H) compared to sobrerol-L, Stroke and Sham groups, red area = undamaged, white = infarction); “red undamaged area without cerebral infarction area” (group orally administered sobrerol compared to the other groups, dose not given). Moreover, the infarction size result (stroke animal model, compared to the group not administered a stroke drug, dose not stated) is given as “decrease”.
